Here are results for four compounds from article PMC6471218, “Anti-Diabetic Activity of 2,3,6-Tribromo-4,5-Dihydroxybenzyl Derivatives from Symphyocladia latiuscula through PTP1B Downregulation and α-Glucosidase Inhibition” (Marine Drugs, 2019).

Read-outs that look alike come from different tables or passages of the source.

The test system of one data set is HepG2 cells. The data set is described as follows: MTT cytotoxicity assay in HepG2 cells. It is filed as cell-based, human. The note with it: 25, 50 and 100 μM, 24 h. Here is the method: Cytotoxicity of bromophenols on HepG2 cells was evaluated using a 3-(4,5-dimethylthiazol-2-yl)-2,5-diphenyl tetrazolium bromide (MTT) assay. […] So, considering enzyme inhibition activity and toxicity in HepG2 cells, we performed cell-based experiments at 5, 10, and 20 µM concentrations.
Figure 7 Effect of bromophenols 1–3 on cell viability in HepG2 cells. Cell viability was determined using the 3-(4,5-dimethylthiazol-2-yl)-2,5-diphenyl tetrazolium bromide (MTT) method. Cells were pretreated with the indicated concentrations (25, 50, and 100 μM) of test compounds for 24 h. Data shown represent mean ± standard deviation of triplicate experiments. ^a p < 0.05 indicates significant differences from the control group.
(§1) HepG2 (human hepatocarcinoma) cells obtained from the American Type Culture Collection (HB-8065; Manassas, VA, USA) were maintained in 10% FBS MEM at 37 °C in a humidified atmosphere with 5% CO2. Cytotoxicity was evaluated using the MTT assay. Following previously described methods, an insulin-resistant HepG2 cell model was established. All other experimental conditions and procedures were similar to those reported in our previous paper.

Another data set concerns PTP1B. Also on record: method as in ref 35 (Liu et al.). Conditions: ref 35 (Liu et al.); read-out: PTP1B IC50 (literature); cited from earlier work.
In data set [1] the target is T1, Human recombinant protein tyrosine phosphatase (PTP1B) (Homo sapiens, UniProt P18031).
T1 sequence (P18031 1-435): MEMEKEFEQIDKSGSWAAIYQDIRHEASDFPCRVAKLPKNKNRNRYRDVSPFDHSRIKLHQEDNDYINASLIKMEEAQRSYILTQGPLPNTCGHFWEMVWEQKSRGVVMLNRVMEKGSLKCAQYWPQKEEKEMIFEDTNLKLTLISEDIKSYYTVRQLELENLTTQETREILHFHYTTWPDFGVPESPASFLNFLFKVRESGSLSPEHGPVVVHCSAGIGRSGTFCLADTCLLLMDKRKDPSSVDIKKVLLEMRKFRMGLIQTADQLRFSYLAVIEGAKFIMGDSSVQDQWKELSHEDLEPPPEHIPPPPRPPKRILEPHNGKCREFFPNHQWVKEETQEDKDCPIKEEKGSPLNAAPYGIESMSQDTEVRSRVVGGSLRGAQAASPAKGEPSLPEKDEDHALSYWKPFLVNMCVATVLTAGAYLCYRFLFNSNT
The experiment in a line: Kinetic study against PTP1B (Lineweaver–Burk and Dixon plots). It is filed as biochemical. Conditions: for PTP1B Inhibition Type: determined from Lineweaver–Burk plots. Here is the method:
(§2) In competitive inhibition mode (Figure 2C), double reciprocal plots yielded a group of lines with the same y-intercept (constant Vmax) but different x-intercepts (varying Km values). […] The double reciprocal plots of α-glucosidase enzyme inhibition by 3 yielded a group of lines intersecting at a single point in the second quadrant.
(§3) The modes of enzyme inhibition were evaluated by monitoring the effects of different concentrations of the substrates (1, 2, or 4 mM pNPP for PTP1B and 1.25, 2.5, or 5 mM pNPG for α-glucosidase) on Dixon plots (single reciprocal plots). […] The enzymatic procedure consisted of the same aforementioned assay method. The inhibition constants (Ki) were determined by interpreting Dixon plots, where the value of the x-intercept indicated the value of −Ki.

Data set [2] concerns the target T2, yeast α-glucosidase (Saccharomyces cerevisiae, UniProt P53341).
T2 construct: purchased Sigma-Aldrich Co. (St. Louis, MO, USA)
The data set is described as follows: Kinetic study against α-glucosidase (Lineweaver–Burk and Dixon plots). It is filed as biochemical. The note with it: for α-Glucosidase Inhibition Type: determined from Lineweaver–Burk plots. As for the experimental part:
as §2, §3

The target in data set [3] is T2, yeast α-glucosidase. The data set is described as follows: biochemical. It is filed as biochemical. Conditions: for Enhancement of α-glucosidase inhibitory activity compared to 2: ratio of IC50 values. From the text: (§4) The initial step in evaluating anti-diabetic secondary metabolites from Symphyocladia latiuscula was the evaluation of PTP1B and α-glucosidase inhibition potentials of methanol extract and fractions obtained by MeOH extract partition with different solvents using pNPP and pNPG as substrates, respectively. Enzyme inhibition levels are expressed as mean IC50 values with standard deviation.
(§5) Human recombinant protein tyrosine phosphatase (PTP1B) was purchased from Biomol International LP (Plymouth Meeting, PA, USA). Fetal bovine serum (FBS), minimum essential medium (MEM), sodium pyruvate, penicillin-streptomycin, and nonessential amino acids were purchased from Gibco-BRL Life Technologies (Grand Island, NY, USA). The fluorescent D-glucose analogue and 2-NBDG was purchased from Life Technologies (Carlsbad, CA, USA). Human insulin was purchased from Eli Lilly (Fegersheim, France). All other chemicals and solvents used were of reagent grade and acquired from commercial sources.
The α-glucosidase inhibition assay procedure, previously reported by Li et al., was followed to measure the release of […] at 405 nm using a microplate spectrophotometer (Molecular Devices).

Data set [4] has as its target T1, Human recombinant protein tyrosine phosphatase (PTP1B). The experiment in a line: PTP1B inhibitory assay with pNPP substrate. It is filed as biochemical.
Text: as §4, §5
The potential for MeOH extract, solvent-soluble fractions, and isolated compounds to inhibit PTP1B enzyme activity was evaluated using the pNPP substrate. Experimental conditions and laboratory procedures were similar to those published in our previous report.

Data set [5] relates to insulin-resistant HepG2 cells. The experiment in a line: 2-NBDG glucose uptake assay in insulin-resistant HepG2 cells. It is filed as cell-based, human. Conditions: 24 h; for Insulin-stimulated glucose uptake compared with rosiglitazone 10 µM (112%): 20 µM. As for the experimental part: Figure 8 Effect of bromophenols 1–3 on insulin-stimulated glucose uptake in insulin-resistant HepG2 cells. The glucose uptake assay was performed using the fluorescent D-glucose analogue 2-NBDG and 10^−6 mol/L insulin was to induce insulin resistance. Insulin-resistant HepG2 cells were treated with the indicated concentrations of test compounds or rosiglitazone for 24 h, and insulin-stimulated 2-NBDG uptake was measured. Values represent the mean ± standard deviation of triplicate experiments. ^a p < 0.01 indicates significant differences from the control group; ^b p < 0.05, ^c p < 0.01, and ^d p < 0.001 indicate significant differences from the insulin-resistant group.
as §1
The relative percent glucose uptake upon sample treatment in IR-HepG2 cells was evaluated by a flourimetric method using the fluorescent D-glucose analog 2-NBDG and measured on a fluorescence microplate reader (FL×800, Bio-Tek Instruments, Inc., Winooski, VT, USA) at 485 nm excitation and 528 nm emission wavelengths. Detailed experimental conditions and procedures are reported in our previous publication.

In a further data set the target is α-glucosidase. The arrangement: method as in ref 24, 34 (Kurihara et al.). The note with it: different enzyme and pNPG concentrations; 34 (Kurihara et al.); read-out: 50% α-glucosidase enzyme inhibition concentration (literature); cited from earlier work.
Data set [6] relates to PTP1B expression in insulin-resistant HepG2 cells. The experiment in a line: PTP1B expression level in insulin-resistant HepG2 cells (western blot). It is filed as cell-based, human. The note with it: 24 h treatment, then 100 nM insulin 30 min. As for the experimental part: Figure 9 Effects of bromophenol 1 (A), 2 (B), and 3 (C) on protein tyrosine phosphatase 1B (PTP1B) expression levels in insulin-resistant HepG2 cells. Western blotting was performed and protein band intensities were quantified by densitometric analysis. Upper panels display representative blots. Equal protein loading was ensured and normalized against β-actin levels. Values represent the mean ± standard deviation of three independent experiments; ^a p < 0.001 indicates significant differences from the control group; ^b p < 0.05, ^c p < 0.01, and ^d p < 0.001 indicate significant differences from the insulin-resistant group.
Insulin-resistant HepG2 cells were exposed to a range of concentrations of 1–3 or rosiglitazone (10 μM) in 24-well plates for 24 h followed by stimulation with 100 nM insulin diluted in SFMEM for 30 min. Cells were then washed twice with ice cold PBS, collected, and lysed with sample buffer. Protein was quantified by the modified Bradford protein assay kit using bovine serum albumin (BSA) as a standard, electrophoresed on sodium dodecyl sulfate-polyacrylamide gels (Bio-Rad, Hercules, CA, USA), and then transferred to polyvinylidene difluoride (PVDF) membranes (Immobilon-P; Millipore, Burlington, MA, USA) using the Pierce G2 Fast Blotter (Thermo Fisher Scientific Inc, USA) at 100 V for 60 min in a standard semi-dry system. […]

T2 sequence (P53341 whole entry): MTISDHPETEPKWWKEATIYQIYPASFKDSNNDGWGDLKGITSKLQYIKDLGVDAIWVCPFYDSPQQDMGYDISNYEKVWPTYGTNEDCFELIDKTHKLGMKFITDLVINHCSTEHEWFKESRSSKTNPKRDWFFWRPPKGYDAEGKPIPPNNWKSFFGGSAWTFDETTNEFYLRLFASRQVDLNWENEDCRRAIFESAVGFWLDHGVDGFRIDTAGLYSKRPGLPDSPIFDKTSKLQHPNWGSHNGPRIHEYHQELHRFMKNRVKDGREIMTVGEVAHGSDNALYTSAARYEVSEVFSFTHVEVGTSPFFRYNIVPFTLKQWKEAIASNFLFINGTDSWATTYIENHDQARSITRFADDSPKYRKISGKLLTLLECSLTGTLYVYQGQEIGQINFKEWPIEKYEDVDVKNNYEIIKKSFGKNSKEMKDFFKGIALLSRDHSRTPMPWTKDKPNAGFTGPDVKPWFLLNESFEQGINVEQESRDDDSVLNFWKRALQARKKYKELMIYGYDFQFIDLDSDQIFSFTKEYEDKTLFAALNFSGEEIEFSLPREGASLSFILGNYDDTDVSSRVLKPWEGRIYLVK

As for `COCc1c(Br)c(O)c(O)c(Br)c1Br` [Compound 2, 2,3,6-Tribromo-4,5-dihydroxybenzyl methyl ether], the “Cytotoxicity (cell viability, MTT) in HepG2 cells” value in the data set with HepG2 cells is reported as “did not show toxicity until they were used at a concentration of 100 μM”. Further, the values for the IC50 (with PTP1B; against yeast α-glucosidase [3]; in data set [4]) were 3.9 µM, 7240 ± 20 nM and 8.5 ± 0.45 µM, respectively. The values for the Ki (in [1]; at yeast α-glucosidase [2]) were 2400 nM and 5540 nM, respectively. In addition, the “PTP1B Inhibition Type” value in data set [1] was “Mixed-type”. Also, the “α-Glucosidase Inhibition Type” value on yeast α-glucosidase [2] was “Noncompetitive”. The “Insulin-stimulated glucose uptake compared with rosiglitazone 10 µM (112%)” value in data set [5] is “comparable”.
For the compound `OCc1c(Br)c(O)c(O)c(Br)c1Br` [Compound 1, 2,3,6-Tribromo-4,5-dihydroxybenzyl alcohol], the “Cytotoxicity (cell viability, MTT) in HepG2 cells” value in the data set with HepG2 cells is recorded as “slightly toxic effect at 100 μM”. Moreover, in data set [1], the Ki worked out at 1190 nM and the “PTP1B Inhibition Type” value is listed as “Mixed-type”. Further, on yeast α-glucosidase [2], the inhibition constant (Ki) came out at 1920 nM and the “α-Glucosidase Inhibition Type” value was “Noncompetitive”. Besides, on yeast α-glucosidase [3], the IC50 was determined as 2630 ± 110 nM and the “Enhancement of α-glucosidase inhibitory activity compared to 2” value was 2.5 fold. Also, the IC50 in data set [4] was found to be 7.74 ± 0.14 µM. Further, the IC50 on α-glucosidase was 11 µM. For the same compound, the “Insulin-stimulated glucose uptake compared with rosiglitazone 10 µM (112%)” value in [5] is “comparable”.
For `CN(CCOc1ccc(CC2SC(=O)NC2=O)cc1)c1ccccn1` (stereo not drawn) [Rosiglitazone, rosiglitazone, reference compound], the “Insulin-stimulated glucose uptake (2-NBDG)” value in [5] (10 µM, relative to normal control) was 112%.
For the compound `Oc1c(O)c(Br)c(COCc2c(Br)c(O)c(O)c(Br)c2Br)c(Br)c1Br` [Compound 3, Bis-(2,3,6-tribromo-4,5-dihydroxybenzylmethyl ether)], the Ki came out at 2250 nM in [1] (determined from Dixon plots, read-out: PTP1B Ki) and 210 nM on yeast α-glucosidase [2] (determined from Dixon plots, read-out: α-Glucosidase Ki). Besides, the “PTP1B Inhibition Type” value in [1] is listed as “Competitive”. Moreover, at yeast α-glucosidase [2], the “α-Glucosidase Inhibition Type” value is “Mixed-type”. Further, the IC50 was 1920 ± 20 nM at yeast α-glucosidase [3] (mean ± SD, n = 3, read-out: α-Glucosidase IC50); 5.29 ± 0.08 µM in data set [4] (mean ± SD, n = 3, read-out: PTP1B IC50); 0.03 µM at α-glucosidase. Further, the “Enhancement of α-glucosidase inhibitory activity compared to 2” value at yeast α-glucosidase [3] was determined as 3.8 fold. Also, in data set [6], the “Effect on PTP1B expression level” value is “excellent ability to reduce PTP1B expression level”. Moreover, the “Insulin-stimulated glucose uptake compared with rosiglitazone 10 µM” value in [5] (10 µM) is listed as “greater effect than rosiglitazone”.
